Assay results from ChEMBL document CHEMBL4483862, “Open-source discovery of chemical leads for next-generation chemoprotective antimalarials” (2018).

Test system: Plasmodium berghei
Test: Luciferase/luciferin-expressing antifolate-resistant parasites were used to infect a culture of HepG2 cells that were pre-incubated with compounds. Infected hepatocytes emit light due to the luciferase reaction. Assay results are presented as the percent inhibition of light emission compared to control. […]
Assay type: functional
Conditions: sporozoite; for IC90: read-out: LUCIFERASE INFECTION ASSAY - IC90

| Compound | IC90 | further results |
| --- | --- | --- |
| Oc1cccc2c(NC(S)=Nc3ccc(SC(F)F)cc3)cccc12 | 7.7 µM | IC50 (FFLUC_HILL_SLOPE 69.3, FFLUC_R_SQUARED 0.272, PBLUC_HILL_SLOPE 39, PBLUC_R_SQUARED 0.0559, read-out: LUCIFERASE INFECTION ASSAY - IC50): 7.27 µM |
| CC(=O)Nc1cccc(-c2ccnc3c2CC(C(=O)NCc2cccs2)O3)c1 (stereo not given) | 3.24 µM | IC50 (FFLUC_HILL_SLOPE 58.8, FFLUC_R_SQUARED 0.264, HEPG2TOX_HILL_SLOPE 13.5, HEPG2TOX_R_SQUARED 0.74, PBLUC_HILL_SLOPE 13.2, PBLUC_R_SQUARED 0.157, read-out: LUCIFERASE INFECTION ASSAY - IC50): 2.74 µM |
| Cc1cc(O)c(C(=O)/C=C/c2cccc(C(F)(F)F)c2)c(=O)o1 | > 10 µM | IC50 (FFLUC_HILL_SLOPE 56.9, FFLUC_R_SQUARED 0.7, read-out: LUCIFERASE INFECTION ASSAY - IC50): > 10 µM |
| N#C/C(=N\Nc1cc(C(F)(F)F)cc(C(F)(F)F)c1)S(=O)(=O)c1cccs1 | 2 µM | IC50 (FFLUC_HILL_SLOPE 43.6, FFLUC_R_SQUARED 0.536, HEPG2TOX_HILL_SLOPE 2.45, HEPG2TOX_R_SQUARED 0.984, PBLUC_HILL_SLOPE 3.51, PBLUC_R_SQUARED 0.744, read-out: LUCIFERASE INFECTION ASSAY - IC50): 1.07 µM |
| CC(C)n1c(Sc2ncc([N+](=O)[O-])s2)nc2cc(Cl)ccc21 | 8.83 µM | IC50 (FFLUC_HILL_SLOPE 44.5, FFLUC_R_SQUARED 0.755, HEPG2TOX_HILL_SLOPE 8.37, HEPG2TOX_R_SQUARED 0.175, PBLUC_HILL_SLOPE 4.42, PBLUC_R_SQUARED 0.266, read-out: LUCIFERASE INFECTION ASSAY - IC50): 5.37 µM |
| CC(=O)Nc1ccc(OC(=O)c2cc(C(C)(C)C)nn2Cc2c(C)cc(C)cc2C)cc1 | 3.69 µM | IC50 (FFLUC_HILL_SLOPE 42.8, FFLUC_R_SQUARED 0.589, PBLUC_HILL_SLOPE 8.27, PBLUC_R_SQUARED 0.64, read-out: LUCIFERASE INFECTION ASSAY - IC50): 2.83 µM |
| Cc1[nH]c2ccccc2c1C(=O)/C(C#N)=C/c1ccc(-c2ccc(S(=O)(=O)N3CCOCC3)cc2)o1 | > 10 µM | IC50 (FFLUC_HILL_SLOPE 49.5, FFLUC_R_SQUARED 0.839, HEPG2TOX_HILL_SLOPE 4, HEPG2TOX_R_SQUARED 0.152, PBLUC_HILL_SLOPE 1.9, PBLUC_R_SQUARED 0.247, read-out: LUCIFERASE INFECTION ASSAY - IC50): 5.12 µM |
| CC(C)(C)c1ccc(C(=N)SC(C(=O)C(F)(F)F)c2ccccc2)cc1 (stereo not given) | 2.03 µM | IC50 (FFLUC_HILL_SLOPE 64.5, FFLUC_R_SQUARED 0.585, PBLUC_HILL_SLOPE 1.09, PBLUC_R_SQUARED 0.88, read-out: LUCIFERASE INFECTION ASSAY - IC50): 0.269 µM |
| COc1ccc2c(-c3ccccc3)cc(SC(c3ccccc3)c3ccccc3)nc2c1 | > 10 µM | IC50 (FFLUC_HILL_SLOPE 74, FFLUC_R_SQUARED 0.292, read-out: LUCIFERASE INFECTION ASSAY - IC50): > 10 µM |
| Cc1cc(C)c(Nc2nc(-c3c(-c4ccccc4)noc3C)cs2)c(C)c1 | 5.3 µM | IC50 (FFLUC_HILL_SLOPE 43.6, FFLUC_R_SQUARED 0.276, HEPG2TOX_HILL_SLOPE 3.1, HEPG2TOX_R_SQUARED 0.635, PBLUC_HILL_SLOPE 7.7, PBLUC_R_SQUARED 0.763, read-out: LUCIFERASE INFECTION ASSAY - IC50): 3.98 µM |
| N#Cc1ccc(/C=N/n2c(-c3ccc(F)cc3)cs/c2=N\c2cccnc2)cc1 | > 10 µM | IC50 (FFLUC_HILL_SLOPE 41.3, FFLUC_R_SQUARED 0.462, HEPG2TOX_HILL_SLOPE 8.97, HEPG2TOX_R_SQUARED 0.901, PBLUC_HILL_SLOPE 3.58, PBLUC_R_SQUARED 0.653, read-out: LUCIFERASE INFECTION ASSAY - IC50): 5.78 µM |
| Cc1cc(C(=O)N/N=C/c2ccc([N+](=O)[O-])s2)nn1-c1c(Cl)cc(Cl)cc1Cl | 4.83 µM | IC50 (FFLUC_HILL_SLOPE 59.9, FFLUC_R_SQUARED 0.709, PBLUC_HILL_SLOPE 2.3, PBLUC_R_SQUARED 0.454, read-out: LUCIFERASE INFECTION ASSAY - IC50): 1.86 µM |
| CC1CC(=O)C2C(=Nc3ccccc3SC2c2ccc(F)cc2)C1 (stereo not given) | > 9.72 µM | IC50 (FFLUC_HILL_SLOPE 40.6, FFLUC_R_SQUARED 0.352, PBLUC_HILL_SLOPE 4.94, PBLUC_R_SQUARED 0.608, read-out: LUCIFERASE INFECTION ASSAY - IC50): 7.03 µM |
| CCCCNC(=O)c1c(NC(=O)c2ccccc2)nc2ccc(C)cn12 | 6.8 µM | IC50 (FFLUC_HILL_SLOPE 60.4, FFLUC_R_SQUARED 0.28, HEPG2TOX_HILL_SLOPE 6.52, HEPG2TOX_R_SQUARED 0.955, PBLUC_HILL_SLOPE 4.31, PBLUC_R_SQUARED 0.763, read-out: LUCIFERASE INFECTION ASSAY - IC50): 4.08 µM |
| Nc1c(C(=O)c2ccc(Cl)cc2)sc2nc3c(c(-c4cccs4)c12)CCCC3 | > 7.77 µM | IC50 (FFLUC_HILL_SLOPE 44.8, FFLUC_R_SQUARED 0.458, PBLUC_HILL_SLOPE 1.88, PBLUC_R_SQUARED 0.367, read-out: LUCIFERASE INFECTION ASSAY - IC50): 5.01 µM |
| O=C(Nc1nc(-c2ccc(Cl)cc2Cl)cs1)C1CC(=O)N(CCc2ccccc2)C1 (stereo not given) | > 10 µM | IC50 (FFLUC_HILL_SLOPE 45.5, FFLUC_R_SQUARED 0.597, PBLUC_HILL_SLOPE 12.9, PBLUC_R_SQUARED 0.652, read-out: LUCIFERASE INFECTION ASSAY - IC50): 9.1 µM |
| CCCNC(=O)c1c(NC(=O)c2cc(F)cc(F)c2)nc2ccccn12 | 2.45 µM | IC50 (FFLUC_HILL_SLOPE 41.4, FFLUC_R_SQUARED 0.343, HEPG2TOX_HILL_SLOPE 1.12, HEPG2TOX_R_SQUARED 0.682, PBLUC_HILL_SLOPE 5.41, PBLUC_R_SQUARED 0.415, read-out: LUCIFERASE INFECTION ASSAY - IC50): 1.63 µM |
| COc1cccc(-c2nc3ccc(NC(=O)Nc4ccc(OC(F)(F)F)cc4)cn3n2)c1 | > 10 µM | IC50 (FFLUC_HILL_SLOPE 45.6, FFLUC_R_SQUARED 0.742, read-out: LUCIFERASE INFECTION ASSAY - IC50): > 10 µM |
| O=C(Nc1cccc(C(F)(F)F)c1)Nc1ccc2nc(-c3ccco3)nn2c1 | > 10 µM | IC50 (FFLUC_HILL_SLOPE 40.8, FFLUC_R_SQUARED 0.195, PBLUC_HILL_SLOPE 31.8, PBLUC_R_SQUARED 0.106, read-out: LUCIFERASE INFECTION ASSAY - IC50): 9.83 µM |
| Cc1ccc(C(=O)Nc2ccccc2Sc2ncc([N+](=O)[O-])s2)cc1 | > 8.88 µM | IC50 (FFLUC_HILL_SLOPE 77.3, FFLUC_R_SQUARED 0.701, read-out: LUCIFERASE INFECTION ASSAY - IC50): > 8.88 µM |
| O=c1c2c(-c3ccccc3)csc2nc2n1CC/C2=C\c1cccc(C(F)(F)F)c1 | > 10 µM | IC50 (FFLUC_HILL_SLOPE 50.3, FFLUC_R_SQUARED 0.583, read-out: LUCIFERASE INFECTION ASSAY - IC50): > 10 µM |
| CC(=O)Nc1ccc(-c2cnc3ccc(-c4ccc(F)c(Cl)c4)nn23)cc1 | 3.52 µM | IC50 (FFLUC_HILL_SLOPE 64.9, FFLUC_R_SQUARED 0.6, HEPG2TOX_HILL_SLOPE 8.77, HEPG2TOX_R_SQUARED 0.612, PBLUC_HILL_SLOPE 16.7, PBLUC_R_SQUARED 0.645, read-out: LUCIFERASE INFECTION ASSAY - IC50): 3.09 µM |
| C/C(=N\NC(=S)Nc1ccccc1)c1ccn[nH]1 | > 12.7 µM | IC50 (FFLUC_HILL_SLOPE 48.7, FFLUC_R_SQUARED 0.514, PBLUC_HILL_SLOPE 3.68, PBLUC_R_SQUARED 0.194, read-out: LUCIFERASE INFECTION ASSAY - IC50): 8.67 µM |
| O=C(Cn1ncc(Cl)c(Cl)c1=O)NCC12CC3CC(CC(C3)C1)C2 | > 10 µM | IC50 (FFLUC_HILL_SLOPE 71.8, FFLUC_R_SQUARED 0.575, read-out: LUCIFERASE INFECTION ASSAY - IC50): > 10 µM |
| N#Cc1ccsc1NC(=O)COc1ccc([N+](=O)[O-])cc1Cl | > 10 µM | IC50 (FFLUC_HILL_SLOPE 45.5, FFLUC_R_SQUARED 0.53, PBLUC_HILL_SLOPE 0.51, PBLUC_R_SQUARED 0.745, read-out: LUCIFERASE INFECTION ASSAY - IC50): 0.444 µM |
| O=C(Nc1ccc2c(c1)OCO2)C1CCN(C(C(=O)c2c[nH]c3ccccc23)c2ccccc2)CC1 (stereo not given) | > 10 µM | IC50 (FFLUC_HILL_SLOPE 60.7, FFLUC_R_SQUARED 0.292, PBLUC_HILL_SLOPE 4.02, PBLUC_R_SQUARED 0.0454, read-out: LUCIFERASE INFECTION ASSAY - IC50): 7.8 µM |
| Cc1ccc(-c2ccccc2C(=O)OCC(=O)Nc2ccc(C)c(Cl)c2)cc1 | > 10 µM | IC50 (FFLUC_HILL_SLOPE 49.8, FFLUC_R_SQUARED 0.336, read-out: LUCIFERASE INFECTION ASSAY - IC50): > 10 µM |
| FC(F)Oc1ccc(-c2n[nH]cc2Sc2ccc(Cl)cc2)cc1 | > 9.35 µM | IC50 (FFLUC_HILL_SLOPE 44.1, FFLUC_R_SQUARED 0.44, PBLUC_HILL_SLOPE 8.27, PBLUC_R_SQUARED 0.292, read-out: LUCIFERASE INFECTION ASSAY - IC50): > 9.35 µM |
| Cn1c(=O)c(C2=NN(C(=O)c3cccs3)C(c3ccco3)C2)c(-c2ccccc2)c2cc(Cl)ccc21 (stereo not given) | > 10 µM | IC50 (FFLUC_HILL_SLOPE 47.1, FFLUC_R_SQUARED 0.757, PBLUC_HILL_SLOPE 11.3, PBLUC_R_SQUARED 0.251, read-out: LUCIFERASE INFECTION ASSAY - IC50): 9.29 µM |
| CC1(CCc2ccccc2)NCC(c2ccc(Cl)cc2Cl)c2c1[nH]c1ccccc21 (stereo not given) | > 10 µM | IC50 (FFLUC_HILL_SLOPE 44.6, FFLUC_R_SQUARED 0.534, read-out: LUCIFERASE INFECTION ASSAY - IC50): > 10 µM |
